The record followed here is patent US5098613A, “Anti-inflammatory agents” (Eli Lilly and Company, priority 1990, dated 1992).

By ED50 is commonly meant the dose at which the effect has come halfway, by size or by number of responders.

Experiment [1] deals with shock after E. coli LPS and galactosamine (GALN) challenge. Description: Mouse Endotoxin Shock Assay. The note with it: LPS/GALN s.c. challenge, results 48 hours after challenge, Reed Muench Method. It is filed as in vivo, C57BL/6 male mice. The protocol:
Compounds were given to 18-20 g C57BL/6 male mice using various regimens depending upon mode of administration. Control animals received corresponding vehicles only. The mice were then challenged with 0.2 ml of chromatographically purified 0111:B4 E. coli LPS and galactosamine hydrochloride (GALN) given subcutaneously (back of the neck). GALN was given at an approximate dose of 500 mg/kg whereas the LPS dose ranged between 0.3-1.2 μg/mouse (15-60 μg/k9). Control animals generally die of shock 7-15 hours after administration of LPS/GALN although a small number (0-5%) may die 24-48 hours after such administration. Calculation of the EDso for each compound was performed using the Reed Muench Method for results obtained 48 hours after challenge.

Experiment [2] has as its system Arachidonic Acid Induced Ear Edema. Description: Arachidonic Acid-Induced Ear Edema Assay. The note with it: Mus musculus, 1 h, topical, one hour prior to arachidonic acid, read-out: Percent Inhibition of Ear Swelling; for inhibition in vivo at 0.05 %: 0.05% in ethanol gel; for inhibition in vivo at 1 %: 1% in ethanol gel. It is filed as in vivo, Female BALB/C mice. The protocol: Female BALB/C mice (Charles River; 18-20 rams) were divided into groups of five. Arachidonic acid was dissolved in ethanol at a concentration of 200 mg/ml. Each mouse received 2 mg/ear of arachidonic acid on the inner surface of the right ear. This dose of phlogistic was applied by an automatic pipette in 10 mcl volumes. The left ear (control) received ethanol. Drugs were applied topically in an ethanol-based gel to the entire outer surface of both ears one hour prior to arachidonic acid application. Edema was measured by the increase in ear weight. An hour after arachidonic acid solution or vehicle was applied, an ear sample of 7 mm in diameter was obtained from both ears. Ear edema was calculated by subtracting the […], dividing by the weight of the left/Control ear, and averaging the results for each group of mice according to compound and concentration.

Experiment [3] deals with inflammation created by injecting carrageenin into the hind paws of rats. The experiment can be described thus: Carrageenin Assay. Format: in vivo. To be noted: Rattus norvegicus, ip, 50 mg/kg i.p., prior to carrageenin injection, read-out: Percent Inhibition (Antiinflammatory Activity in the Carrageenin Assay). The protocol:
The compounds were evaluated for antiinflammatory activity in the test method described by C. A. Winter, Proc. Soc. Exp. Biol. Med., 111, 544 (1962). In this test, inflammation is created by injecting carrageenin into the hind paws of rats. Test compounds are administered prior to injection to determine percent inhibition of the subsequent inflammation in comparison with control animals.

The target in experiment [4] is T1, leukotriene B4 specific receptor on the membrane of human neutrophils (Homo sapiens, UniProt Q15722).
T1 construct: incubating neutrophils (1×10^7 cells) with 0.1-0.2 nM ^3 H-LTB4; endogenous in cells; host or cells: human peripheral blood neutrophils (buffy coats of two blood donors)
T1 sequence (Q15722 whole entry): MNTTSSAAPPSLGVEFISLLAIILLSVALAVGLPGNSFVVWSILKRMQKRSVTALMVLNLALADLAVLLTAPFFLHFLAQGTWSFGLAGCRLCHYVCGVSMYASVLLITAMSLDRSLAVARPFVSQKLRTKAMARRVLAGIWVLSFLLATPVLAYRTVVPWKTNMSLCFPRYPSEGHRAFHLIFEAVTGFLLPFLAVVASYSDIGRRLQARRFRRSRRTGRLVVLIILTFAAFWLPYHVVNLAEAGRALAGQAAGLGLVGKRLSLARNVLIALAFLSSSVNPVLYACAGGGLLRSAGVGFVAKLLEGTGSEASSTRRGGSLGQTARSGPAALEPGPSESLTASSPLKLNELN
Description: Inhibition of Binding of ^3 H-LTB4 to Peripheral Human Neutrophils. The note with it: 4° C., 10 minutes; for inhibition at 10 µM: drug concentration 10^-5 M, read-out: LTB4 Binding Inhibition; for inhibition at 1 µM: drug concentration 10^-6 M; for inhibition at 0.1 µM: drug concentration 10^-7 M. In short, it runs like this: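 Freshly isolated human donor neutrophils (1×10^7 cells) in HBSS/0.1% ovalbumin pH 7.3 were incubated with 0.1-0.2 nM ^3H-LTB4 and compound at 1×10^-5 or 1×10^-6 M for 10 min at 4 °C. Bound ligand was separated by centrifugation through phthalate oil and counted, then corrected for nonspecific binding and compared with compound-free control.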

The test system of experiment [5] is IL-1 induced T-cell Proliferation. Description: Anti IL-1 Activity (Thymocyte Assay): suppression of IL-1 induced T-cell proliferation. It is filed as cell-based, C3H/HeJ male mice. To be noted: mouse thymocytes, 48 hours, read-out: Percent T-cell suppression; for inhibition at 1 µg/mL: 1 mcg/ml; for inhibition at 10 µg/mL: 10 mcg/ml. The protocol: Thymus from 3-4 week old C3H/HeJ male mice and were passed through a #100 mesh screen to make a single cell suspension. The cells were suspended in RPMI-1640 supplemented with 2×10^-5 M 2-mercaptoethanol, 3% fetal calf serum, and 1% Penicillin/Streptomycin. The cell suspension was placed in a tissue culture flask and incubated at 37° C. in 5% carbon dioxide in air for 1-2 hours. The thymocytes were decanted, leaving adherent cells behind, and the liquid was centrifuged at 1400 rpm for 10 minutes. After decanting the supernatant, the cells were resuspended and counted with a hemocytometer. The density was adjusted to […]. Fifty μ1 of the suspension were added to each well of a 96-well microtiter plate, followed by the addition of 25 μl of PHA and 25 μl IL-1 (1:25 dilution of a 10 mcg/ml stock solution) per well.
Each compound to be tested was dissolved in 30% DMSO/70% PBS to make a stock solution of 1 mg/ml. Fifteen μl of each compound were added to 300 μl of media in the serial dilution plate. Twenty-five μl of each drug were added to the test plate in quadruplicate wells across the plate. The plate was incubated at 37° C. in 5% carbon dioxide in air for 48 hours. The wells were pulsed with tritiated thymidine (5 μCi.well) for 4 hours before harvesting on a Skatron cell harvester. The filter discs were placed in mini-vials, scintillation fluid (Tol-Pop) was added, and the vials counted. The percent of counts for each vial compared with control samples wherein no compound was added (vehicles only) was determined for each compound and are reported as Table III below as the percent T-ce1 suppression.

`CCc1cc(C(C)=O)c(O)cc1OCc1cccc(C#N)c1` [Example 55]: the 50% effective dose (ED50) in experiment [1] was 3.1 mg/kg. In addition, in experiment [2], the inhibition in vivo at 0.05 % was 43 to 59% and the inhibition in vivo at 1 % was found to be 57%. Besides, in experiment [3], the inhibition in vivo at 50 mg/kg worked out at 70%. Further, in experiment [4], the inhibition at 10 µM is 60%, the inhibition at 1 µM came to 71% and the inhibition at 0.1 µM was found to be 25%.
With `CCc1cc(C(C)=O)c(O)cc1OCCCCCCc1nnn[nH]1` [Example 140, 1-(5-Ethyl-2-hydroxy-4-{[6-(1H-tetrazol-5-yl)-hexyl]oxy}phenyl)ethanone], the inhibition in vivo at 50 mg/kg in experiment [3] was determined as 31%. In experiment [4], the inhibition at 10 µM was 94% and the inhibition at 1 µM amounted to 59%.
Consider `CCc1cc(C(C)=O)c(O)cc1OCCCCc1nn[nH]n1` [Example 110, 5-Ethyl-2-hydroxy-4-[4-(lH-tetrazol-5-y)butoxy]acetophenone], for which, in experiment [2], the inhibition in vivo at 1 % was found to be 58%. For the same molecule, the inhibition in vivo at 50 mg/kg in experiment [3] was 64%. Besides, in experiment [4], the inhibition at 10 µM came out at 49% and the inhibition at 1 µM came out at 19%.
In the case of `CCCc1cc(C(C)=O)c(O)cc1OCCCc1ccccc1` [Example 53, 2-Hydroxy-4-(3-phenylpropoxy)-5-propyl-acetophenone], the inhibition in vivo at 0.05 % in experiment [2] was determined as 24%. In experiment [3], the inhibition in vivo at 50 mg/kg lay within 50 to 60%. In experiment [4], the inhibition at 10 µM was 5% and the inhibition at 1 µM came to 13%.
`CCc1cc(C(C)=O)c(OC)cc1OCc1cccc(C#N)c1` [Example 114]: the inhibition in vivo at 0.01 % in experiment [2] (0.01% in ethanol gel) amounted to 44%. Moreover, in experiment [2], the inhibition in vivo at 0.05 % was determined as 40%. For the same molecule, in experiment [4], the inhibition at 10 µM was 52% and the inhibition at 1 µM worked out at 8%.
Regarding `CCc1cc(C(C)=O)c(O)cc1OCCCCc1nnn(C)n1` [Example 123, 2-Hydroxy-4-[4-(2-methyl-2H-tetrazol-5-yl)butoxy]-5-ethylacetophenone], the inhibition in vivo at 1 % in experiment [2] is 58%. Also, in experiment [3], the inhibition in vivo at 50 mg/kg was determined as 55%. In experiment [5], the inhibition at 1 µg/mL was found to be 36% and the inhibition at 10 µg/mL is 90%. Also, in experiment [4], the inhibition at 10 µM worked out at 98% and the inhibition at 1 µM is 60%.
On to `C=CCc1cc(C(C)=O)c(O)cc1OCCCCCCSC` [Example 78, 2-Hydroxy-4-[6-(methylthio)hexyloxy]-5-allylaoetophenone], for which the inhibition in vivo at 1 % in experiment [2] amounted to 46%. For the same molecule, in experiment [4], the inhibition at 10 µM stood at 78% and the inhibition at 1 µM is 38%.
On to `CCc1cc(C(C)=O)c(O)cc1OCCCC(C)(C)c1nnn[nH]1` [Example 136, 1-(5-Ethyl-2-hydroxy-4-{[4-methyl-4-(1H-tetrazol-5-yl)pentyl]oxy}phenyl)ethanone], for which, in experiment [3], the inhibition in vivo at 50 mg/kg stood at 41%. Moreover, in experiment [4], the inhibition at 10 µM stood at 100% and the inhibition at 1 µM turned out to be 77%.
In the case of `CCc1cc(C(C)=O)c(O)cc1OCCCCCC(C)(C)C(=O)O` [Example 87, 7-(4-Acetyl-2-ethyl-5-hydroxyphenoxy)-2,2-dimethylheptanoic acid], in experiment [2], the inhibition in vivo at 1 % is 3%. In experiment [3], the inhibition in vivo at 50 mg/kg is 15%. In addition, in experiment [4], the inhibition at 10 µM turned out to be 104%, the inhibition at 1 µM stood at 73% and the inhibition at 0.1 µM was found to be 20%.
In the case of `CCc1cc(C(C)=O)c(O)cc1OCCCCC#N` [Example 19, 5-(4-Acetyl-2-ethyl-5-hydroxyphenoxy)-pentanenitrile], in experiment [3], the inhibition in vivo at 50 mg/kg was determined as 26%. In experiment [4], the inhibition at 10 µM was 90% and the inhibition at 1 µM is 61%.
On to `C=CCc1cc(C(C)=O)c(O)cc1OCCCCCC(=O)NO` [Example 100, 6-(4-Acetyl-5-hydroxy-2-allylphenoxy)-droxyhexanamide], for which, in experiment [2], the inhibition in vivo at 1 % was determined as 18%. In experiment [3], the inhibition in vivo at 50 mg/kg is 38%. Besides, in experiment [4], the inhibition at 10 µM worked out at 84% and the inhibition at 1 µM was 28%.
Consider `CCc1cc(C(C)=O)c(O)cc1OCc1cccc(F)c1` [Example 54, 5-Ethyl-4-(3-fluorobenzyloxy)-2-hydroxy-acetophenone], for which the 50% effective dose (ED50) in experiment [1] stood at 21 mg/kg. In addition, in experiment [4], the inhibition at 10 µM is 42% and the inhibition at 1 µM is 32%.
As to `CCc1cc(C(C)=O)c(O)cc1OCc1cccc(Cl)c1` [Example 56, 4-(3-Chlorobenzyloxy)-5-ethyl-2-hydroxyacetophenone], the inhibition in vivo at 0.05 % in experiment [2] stood at 6%. Moreover, in experiment [4], the inhibition at 10 µM is 42% and the inhibition at 1 µM was determined as 15%.
Regarding `CCc1cc(C(C)=O)c(O)cc1OCCCCCCC#N` [Example 20, 7-(4-Acetyl-2-ethyl-5-hydroxyphenoxy)-heptanenitrile], the inhibition in vivo at 50 mg/kg in experiment [3] is 19%. Besides, in experiment [5], the inhibition at 1 µg/mL was found to be 39% and the inhibition at 10 µg/mL was determined as 99%. Further, in experiment [4], the inhibition at 10 µM worked out at 102% and the inhibition at 1 µM amounted to 72%.
Regarding `CCc1cc(C(C)=O)c(O)cc1OCc1cccc(SC)c1` [Example 59, 4-(3-Methylmercaptobenzyloxy)-5-ethyl-2-hydroxyacetophenone], the inhibition in vivo at 0.05 % in experiment [2] is 0%. Also, in experiment [4], the inhibition at 10 µM is 58% and the inhibition at 1 µM amounted to 23%.
As for `C=CCc1cc(C(C)=O)c(O)cc1OCc1cccc(-c2nnn(C)n2)c1` [Example 121], in experiment [2], the inhibition in vivo at 0.05 % stood at 0%. In experiment [4], the inhibition at 10 µM fell in the range of 27 to 38% and the inhibition at 1 µM fell in the range of 34 to 38%.
Turning to `CCc1cc(C(C)=O)c(O)cc1OCc1cccc(C(=O)OC)c1` [Example 93], the ED50 in experiment [1] was 25 mg/kg. Moreover, in experiment [4], the inhibition at 10 µM was 64% and the inhibition at 1 µM came to 22%.
Consider `CCc1cc(C(C)=O)c(O)cc1OCCCCCCC(=O)N(C)C` [Example 98, 7-(4-Acetyl-2-ethyl-5-hydroxyphenoxy)-N,N-dimethylheptanamide], for which the inhibition in vivo at 1 % in experiment [2] is 17%. In addition, in experiment [5], the inhibition at 1 µg/mL was 14% and the inhibition at 10 µg/mL is 85%. Further, in experiment [4], the inhibition at 10 µM amounted to 100% and the inhibition at 1 µM is 61%.
Take `CCc1cc(C(=O)c2ccccc2)c(O)cc1OCCCCC#N` [Example 130, 5-(4-Benzoyl-2-ethyl-5-hydroxyphenoxy)pentane-nitrile]: in experiment [5], the inhibition at 1 µg/mL is 41% and the inhibition at 10 µg/mL amounted to 99%. In experiment [4], the inhibition at 10 µM turned out to be 48% and the inhibition at 1 µM amounted to 23%.
